Source: US20070037886A1, “Bone marrow erythroid progenitor cell(s) differentiation inducer” (priority 2005, published 2007)
Entries after “also recorded” stand apart in the source; their conditions may differ. Positions of bridges follow the written chain, without caps; N, C: chain ends. No end group written: not given here.

Key:
normal rats = conditions: repeated administration; cited from earlier work
[1] = test system: mouse bone marrow cells (CFU-E); assay: in vitro mouse CFU-E colony assay (methyl cellulose semi-solid medium, with rHuEPO); assay type: cell-based
Method: In the case of oral administration to rats, the blood arginine concentration reaches about 600 μM by a single-dose administration of arginine at 1.2 g/kg. Therefore, it is expected that the number of CFU-E increases in a dose-dependent manner by such an oral administration. Also in humans, it is expected that the number of CFU-E increases as the concentration of arginine in the blood increases by the oral administration.
An in vitro mouse CFU-E colony assay was carried out in accordance with the following method. After a female BDF-1 mouse at 10 weeks of age (Charles River Japan, Inc.) was killed by the cervical dislocation method, bone marrow cells were isolated from the femur and suspended in an IMDM medium (Invitrogen) containing 10% FCS (JRH Bioscience Inc). The bone marrow cells were centrifuged at 1500 rpm for 10 minutes at 4° C. and the precipitated bone marrow cells were resuspended in an amino acid-free IMDM medium and the number of cells was measured. […] Then, the number of CFU-E colonies was measured using an inverted microscope. […]
In the graph, * indicates P<0.05. The data is expressed as a mean value±SEM. […]

[2] = test system: mouse bone marrow cells (CFU-E); assay: CFU-E colony assay with EPO mimetic peptide EMP1; assay type: cell-based
Method: After a female BDF-1 mouse at 10 weeks of age (Charles River Japan, Inc.) was killed by the cervical dislocation method, bone marrow cells were isolated from the femur and suspended in an IMDM medium (Invitrogen) containing 10% FCS (JRH Bioscience Inc). The bone marrow cells were centrifuged at 1500 rpm for 10 minutes at 4° C. and the precipitated bone marrow cells were resuspended in an amino acid-free IMDM medium and the number of cells was measured. To a dish with a diameter of 3.5 cm (Nalgen Nunc, Inc. International), 1 ml of a methyl cellulose semi-solid medium in which the bone marrow cells were suspended {30 μM EMP1, 100 μM 2-mercaptoethanol (Wako Pure Chemical Industries, Ltd.), 24% FCS (JRH Bioscience Inc.), 0.8% methyl cellulose (methyl cellulose containing IMDM solution […], Stem Cell Technologies, Inc.), 2% BSA (SIGMA-ALDRICH Japan K.K.), 1×10^5 cells/ml of bone marrow cells} containing arginine at a concentration of 170 μM was added (which is equal to an IMDM medium whose concentration of the amino acid composition is one-third and which includes FCS at 24%). […] Then, the number of CFU-E colonies was measured using an inverted microscope. […] The data is expressed as a mean value ±SEM. […]

Compound | amount of hemoglobin (normal rats) | amount of red blood cells (normal rats) | number of CFU-E colonies ([1]; arginine 600 μM vs 170 μM, 1 IU/ml rHuEPO, 48 hours, per 2.2×10^5 bone marrow cells, P<0.05) | combined effect of arginine with EPO on CFU-E ([1]; arginine concomitantly with a sufficient amount of EPO) | number of CFU-E colonies ([2]; arginine 770 μM vs 170 μM, 30 μM EMP1, 48 hours, P<0.05) | amount of EMP1 for the highest action (CFU-E colonies) ([2]; same condition as FIG. 2A, FIG. 2B)
N=C(N)NCCC[C@H](N)C(=O)O [arginine] | increased | increased | increased the number of CFU-E; also recorded: further increases CFU-E; also recorded: significantly increases | synergistic effect | increased the number of CFU-E | –
GGTYSCHFGPLTWVCKPQGG-NH2 (disulfide 6-15; N-terminus assumed; SMILES CC(C)C[C@@H]1NC(=O)[C@@H]2CCCN2C(=O)CNC(=O)[C@H](Cc2ccccc2)NC(=O)[C@H](Cc2c[nH]cn2)NC(=O)[C@@H](NC(=O)[C@H](CO)NC(=O)[C@H](Cc2ccc(O)cc2)NC(=O)[C@@H](NC(=O)CNC(=O)CN)[C@@H](C)O)CSSC[C@@H](C(=O)N[C@@H](CCCCN)C(=O)N2CCC[C@H]2C(=O)N[C@@H](CCC(N)=O)C(=O)NCC(=O)NCC(N)=O)NC(=O)[C@H](C(C)C)NC(=O)[C@H](Cc2c[nH]c3ccccc23)NC(=O)[C@H]([C@@H](C)O)NC1=O) [EMP1, EPO mimetic peptide described in Science, vol; 273, pp. 458-463 (1996), reference compound] | – | – | – | – | – | ≥ 10 µM
